Test results reported in the supplement of paper PMC9262897, “Low-cost anti-mycobacterial drug discovery using engineered E. coli” (Nature Communications, 2022).

How the values were obtained:
E. coli TESEC Mtb Alr = assay: growth (OD600 after 10 h, mean); higher = more growth;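 further: E. coli lacking its native Alr, complemented by codon-optimized Mtb Alr under a feedback-controlled arabinose-inducible plasmid circuit, grown in defined medium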
Procedure: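 TESEC Mtb Alr E. coli grown in a two-dimensional dilution series of drug (µM) and arabinose (12 to 1e8 nM). Growth is read as OD600 after 10 h; values are means of 3 biological replicates.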

[1] = system: E. coli wild-type control; assay: growth (OD600 after 10 h); higher = more growth
Procedure: (§1)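 Chemical-genetic validation profiles: TESEC strains (Mtb Asd or DapB, arabinose-inducible) or the wild-type control grown in a two-dimensional dilution series of drug (µM) and arabinose. Growth is read as OD600 after 10 h in triplicate.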

[2] = system: E. coli TESEC strain (Mtb target enzyme); assay: growth (OD600 after 10 h); higher = more growth
Procedure: as §1

N[C@@H]1CONC1=O [D-cycloserine]
growth, E. coli TESEC Mtb Alr
Conditions	drug 7.81 µM	drug 15.62 µM	drug 31.25 µM	drug 62.5 µM	drug 125 µM
arabinose 12 nM	0.367	0.327	0.0519	0.0505	–
arabinose 24 nM	0.363	0.325	0.0523	0.0512	–
arabinose 48 nM	0.367	0.326	0.0519	0.0518	–
arabinose 95 nM	0.358	0.336	0.0543	0.0501	–
arabinose 191 nM	0.376	0.332	0.121	0.0494	–
arabinose 381 nM	0.373	0.348	0.254	0.05	–
arabinose 763 nM	0.382	0.365	0.305	0.0501	–
arabinose 1526 nM	0.38	0.373	0.349	0.131	0.0482
arabinose 3052 nM	0.367	0.373	0.386	0.29	0.0489
arabinose 6104 nM	0.357	0.356	0.411	0.348	0.0678
arabinose 12207 nM	0.329	0.328	0.375	0.378	0.251
arabinose 24414 nM	0.288	0.298	0.315	0.371	–
arabinose 48828 nM	0.285	0.291	0.29	0.341	–
arabinose 97656 nM	0.29	0.284	0.292	0.306	–
arabinose 195312 nM	0.306	0.3	0.311	0.31	–
arabinose 390625 nM	0.318	0.32	0.322	0.327	–
arabinose 781250 nM	0.307	0.304	0.312	0.32	–
arabinose 1562500 nM	0.282	0.283	0.29	0.294	–
arabinose 3125000 nM	0.269	0.264	0.272	0.276	–
arabinose 6250000 nM	0.253	0.247	0.25	0.252	–
arabinose 12500000 nM	0.237	0.234	0.248	0.239	–
arabinose 25000000 nM	0.225	0.229	0.227	0.231	–
arabinose 50000000 nM	0.195	0.204	0.199	0.204	–
arabinose 100000000 nM	0.154	0.163	0.16	0.16	–

N=C(N)c1ccc(OCCCCCOc2ccc(C(=N)N)cc2)cc1 [Pentamidine] (TESEC target enzyme: Mtb DapB)
growth
Conditions	drug 0.7 µM	drug 1.5 µM	drug 3.5 µM	drug 7.8 µM	drug 17.6 µM	drug 39.5 µM	drug 88.9 µM
[1], arabinose 15560 nM	0.275	0.32	0.321	0.289	0.269	0.258	–
[1], arabinose 28008 nM	0.317	0.309	0.301	0.293	0.231	0.259	–
[1], arabinose 50414 nM	0.321	0.318	0.304	0.291	0.235	0.233	–
[1], arabinose 90744 nM	0.29	0.289	0.305	0.312	0.261	0.246	–
[1], arabinose 163340 nM	0.311	0.319	0.308	0.271	0.257	0.256	–
[1], arabinose 294012 nM	0.207	0.29	0.277	0.313	0.271	0.249	–
[1], arabinose 529221 nM	0.168	0.225	0.257	0.302	0.257	0.251	–
[1], arabinose 952599 nM	0.163	0.141	0.201	0.236	0.221	0.239	0.206
[1], arabinose 1714678 nM	0.137	0.161	0.193	0.18	0.179	0.231	0.161
[1], arabinose 3086420 nM	0.13	0.149	0.156	0.185	0.113	0.145	0.157
[1], arabinose 5555556 nM	0.125	0.126	0.177	0.203	0.12	0.136	0.16
[1], arabinose 10000000 nM	0.115	0.151	0.13	0.16	0.129	0.131	–
[2], arabinose 15560 nM	0.117	0.131	–	–	–	–	–
[2], arabinose 28008 nM	0.207	0.18	–	–	–	–	–
[2], arabinose 50414 nM	0.186	0.187	–	–	–	–	–
[2], arabinose 90744 nM	0.207	0.195	–	–	–	–	–
[2], arabinose 163340 nM	0.225	0.21	–	–	–	–	–
[2], arabinose 294012 nM	0.218	0.235	–	–	–	–	–
[2], arabinose 529221 nM	0.208	0.192	–	–	–	–	–
[2], arabinose 952599 nM	0.2	0.225	–	–	–	–	–
[2], arabinose 1714678 nM	0.16	0.182	–	–	–	–	–
[2], arabinose 3086420 nM	0.133	0.153	–	–	–	–	–
[2], arabinose 5555556 nM	0.131	0.146	–	–	–	–	–
[2], arabinose 10000000 nM	0.127	0.124	–	–	–	–	–

CC(C)c1ccc2oc3nc(N)c(C(=O)O)cc3c(=O)c2c1 [Amlexanox]
growth, E. coli TESEC Mtb Alr
Conditions	drug 15.62 µM	drug 31.25 µM	drug 62.5 µM	drug 125 µM	drug 250 µM
arabinose 12 nM	0.4	0.356	0.319	0.272	–
arabinose 24 nM	0.391	0.357	0.317	0.266	–
arabinose 48 nM	0.385	0.352	0.318	0.261	–
arabinose 95 nM	0.382	0.348	0.31	0.265	–
arabinose 191 nM	0.377	0.349	0.319	0.262	–
arabinose 381 nM	0.378	0.346	0.309	0.259	–
arabinose 763 nM	0.382	0.348	0.305	0.261	–
arabinose 1526 nM	0.386	0.352	0.304	0.259	0.264
arabinose 3052 nM	0.375	0.357	0.301	0.257	0.264
arabinose 6104 nM	0.367	0.336	0.29	0.262	0.266
arabinose 12207 nM	0.325	0.306	0.278	0.275	0.281
arabinose 24414 nM	0.282	0.276	0.274	0.285	–
arabinose 48828 nM	0.264	0.266	0.28	0.295	–
arabinose 97656 nM	0.254	0.261	0.28	0.289	–
arabinose 195312 nM	0.268	0.273	0.291	0.284	–
arabinose 390625 nM	0.289	0.298	0.305	0.277	–
arabinose 781250 nM	0.31	0.317	0.304	0.268	–
arabinose 1562500 nM	0.312	0.313	0.297	0.265	–
arabinose 3125000 nM	0.307	0.302	0.292	0.259	–
arabinose 6250000 nM	0.301	0.297	0.286	0.255	–
arabinose 12500000 nM	0.302	0.293	0.284	0.248	–
arabinose 25000000 nM	0.298	0.299	0.282	0.235	–
arabinose 50000000 nM	0.286	0.282	0.259	0.213	–
arabinose 100000000 nM	0.216	0.212	0.216	0.16	–
